Results on 28 molecules are retold here after patent US20080125424A1, “Derivatives of urea and related diamines, methods for their manufacture, and uses therefor” (priority 2006, published 2008).

The experiment has as its target T1, human parathyroid cell Ca2+ receptor (hPCaR) (Homo sapiens, UniProt P41180).
T1 construct: expressed in transfected cells
T1 sequence (P41180 20-1078): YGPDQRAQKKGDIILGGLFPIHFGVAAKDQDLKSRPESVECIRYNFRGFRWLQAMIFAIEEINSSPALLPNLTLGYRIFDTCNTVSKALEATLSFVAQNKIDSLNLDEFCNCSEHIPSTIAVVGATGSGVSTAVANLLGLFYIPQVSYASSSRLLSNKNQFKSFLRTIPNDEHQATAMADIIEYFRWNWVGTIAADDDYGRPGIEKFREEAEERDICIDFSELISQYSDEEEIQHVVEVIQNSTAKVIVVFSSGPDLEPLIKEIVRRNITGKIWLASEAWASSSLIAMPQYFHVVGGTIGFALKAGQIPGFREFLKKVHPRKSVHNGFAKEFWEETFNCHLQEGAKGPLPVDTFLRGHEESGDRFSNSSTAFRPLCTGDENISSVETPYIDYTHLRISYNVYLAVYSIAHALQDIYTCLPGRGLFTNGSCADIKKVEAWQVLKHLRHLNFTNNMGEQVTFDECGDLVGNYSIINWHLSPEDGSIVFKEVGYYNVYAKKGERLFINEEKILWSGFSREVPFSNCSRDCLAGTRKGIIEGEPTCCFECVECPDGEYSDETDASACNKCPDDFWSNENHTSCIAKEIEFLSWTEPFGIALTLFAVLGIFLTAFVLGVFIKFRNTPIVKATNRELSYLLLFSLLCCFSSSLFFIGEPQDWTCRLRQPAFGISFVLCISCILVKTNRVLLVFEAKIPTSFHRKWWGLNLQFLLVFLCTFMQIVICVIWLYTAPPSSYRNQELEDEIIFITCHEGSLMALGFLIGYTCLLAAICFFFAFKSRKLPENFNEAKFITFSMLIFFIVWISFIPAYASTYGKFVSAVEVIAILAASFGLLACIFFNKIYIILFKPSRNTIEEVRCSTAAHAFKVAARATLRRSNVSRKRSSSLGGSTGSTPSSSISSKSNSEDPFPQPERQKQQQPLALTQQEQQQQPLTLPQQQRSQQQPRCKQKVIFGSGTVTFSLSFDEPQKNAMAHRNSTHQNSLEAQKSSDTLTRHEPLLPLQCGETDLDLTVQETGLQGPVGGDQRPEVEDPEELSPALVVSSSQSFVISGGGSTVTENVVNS
The experiment in a line: [Ca2+]i fluorescence assay in HEK 293 4.0-7 cells expressing hPCaR. The experiment is classed as cell-based. As to conditions: buffer with 1 mM CaCl2. The essentials:
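HEK 293 clone 4.0-7 stably expressing human parathyroid Ca2+ receptor, seeded overnight, then loaded 90 min at room temperature with calcium dye in parathyroid cell buffer (pH 7.45) with 0.5% BSA and 1 mM CaCl2. Fluorescence after compound addition read at ex 485/em 530 nm.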

What is called EC50 is the concentration needed to bring the measured effect to its halfway point. A high value points to a need for much substance. With `CCOC(=O)CNCCN(CCC(c1ccccc1)c1ccccc1)C(=O)Nc1nc2ccccc2s1` [Example 151, {2-[3-Benzothiazol-2-yl-1-(3,3-diphenyl-propyl)-ureido]-ethylamino}-acetic acid ethyl ester], the EC50 is 100 to 1000 nM. With `CS(=O)(=O)Nc1ccc(-c2csc(NC(=O)N(CCCC(=O)N[C@@H]3CCCNC3)CCC(c3ccccc3)c3ccccc3)n2)cc1` [Example 67, (R)-1-(3,3-diphenylpropyl)-3-(4-(4-(methylsulfonamido)phenyl)thiazol-2-yl)-1-(4-oxo-4-(piperidin-3-ylamino)butyl)urea] the figure was less than 100 nM; with `CS(=O)(=O)Nc1ccc(-c2nc(NC(=O)N(CCC(=O)O)CCC(c3ccccc3)c3ccccc3)sc2Cl)cc1` [Example 98, 3-(3-(5-chloro-4-(4-(methylsulfonamido)phenyl)thiazol-2-yl)-1-(3,3-diphenylpropyl)ureido)propanoic acid], 100 to 1000 nM. To `O=C(CCN(CCC(c1ccccc1)c1ccccc1)C(=O)Nc1nc2ccccc2s1)N1CCNCC1` [Example 106, 3-(benzo[d]thiazol-2-yl)-1-(3,3-diphenylpropyl)-1-(3-oxo-3-(piperazin-1-yl)propyl)urea] belongs 100 to 1000 nM; to `C[C@H]1CN(C(=O)CCN(CCC(c2ccccc2)c2ccccc2)C(=O)Nc2nc3ccccc3s2)CCN1` [Example 115, (S)-3-(benzo[d]thiazol-2-yl)-1-(3,3-diphenylpropyl)-1-(3-(3-methylpiperazin-1-yl)-3-oxopropyl)urea], 100 to 1000 nM. Molecule `O=C(Nc1nc2ccccc2s1)N(CCNCC1CCN(C(=O)OCc2ccccc2)CC1)CCC(c1ccccc1)c1ccccc1` [Example 149, 4-({2-[3-Benzothiazol-2-yl-1-(3,3-diphenyl-propyl)-ureido]-ethylamino}-methyl)piperidine-1-carboxylic acid benzyl ester] had an EC50 of 100 to 1000 nM. For `C[C@@H]1CN(C(=O)CCN(CCC(c2ccccc2)c2ccccc2)C(=O)Nc2nc3ccccc3s2)CCN1` [Example 125, (R)-3-(benzo[d]thiazol-2-yl)-1-(3,3-diphenylpropyl)-1-(3-(3-methylpiperazin-1-yl)-3-oxopropyl)urea], the EC50 was in the range of 1000 to 5000 nM.

Consider `O=C(O)CCN(CCC(c1ccccc1)c1ccccc1)C(=O)Nc1nc2ccccc2s1` [Example 114, 3-(3-(benzo[d]thiazol-2-yl)-1-(3,3-diphenylpropyl)ureido)propanoic acid], for which the half-maximal effective concentration (EC50) lay within 100 to 1000 nM. To `CN1CCN(C(=O)CCCN(CCC(c2ccccc2)c2ccccc2)C(=O)Nc2nc3ccccc3s2)CC1` [Example 108, 3-(benzo[d]thiazol-2-yl)-1-(3,3-diphenylpropyl)-1-(4-(4-methylpiperazin-1-yl)-4-oxobutyl)urea] belongs 100 to 1000 nM; to `NC(=O)CCN(CCC(c1ccccc1)c1ccccc1)C(=O)Nc1nc2ccccc2s1` [Example 109, 1-(3-amino-3-oxopropyl)-3-(benzo[d]thiazol-2-yl)-1-(3,3-diphenylpropyl)urea], 100 to 1000 nM. To `CN(C)S(=O)(=O)NCCN(CCC(c1ccccc1)c1ccccc1)C(=O)Nc1nc2ccccc2s1` [Example 174, N,N-dimethylamino-sulfonyl-{2-[3-benzothiazol-2-yl-1-(3,3-diphenyl-propyl)-ureido]-ethyl}-amide] belongs 100 to 1000 nM; to `O=C(NCCCCN(CCC(c1ccccc1)c1ccccc1)C(=O)Nc1nc2ccccc2s1)C1CCCCN1` (stereo not shown) [Example 128, 3-(benzo[d]thiazol-2-yl)-1-(3,3-diphenylpropyl)-1-(4-(piperidine-2-carboxamido)butyl)urea], less than 100 nM. The molecule `CCOC(=O)C1CC1CNCCN(CCC(c1ccccc1)c1ccccc1)C(=O)Nc1nc2ccccc2s1` (stereo not shown) [Example 152, 2-({2-[3-Benzothiazol-2-yl-1-(3,3-diphenyl-propyl)-ureido]-ethylamino}-methyl)cyclopropanecarboxylic acid ethyl ester] yielded an EC50 of 1000 to 5000 nM. To `CS(=O)(=O)Nc1ccc(-c2csc(NC(=O)N(CCNC(=O)C3CCCNC3)CCC(c3ccccc3)c3ccccc3)n2)cc1` (stereo not shown) [Example 130, 1-(3,3-diphenylpropyl)-3-(4-(4-(methylsulfonamido)phenyl)thiazol-2-yl)-1-(2-(piperidine-3-carboxamido)ethyl)urea] belongs less than 100 nM. The molecule `C[C@H]1CNCCN1C(=O)CCCN(CCC(c1ccccc1)c1ccccc1)C(=O)Nc1nc(-c2ccccc2)cs1` [Example 100, (S)-1-(3,3-diphenylpropyl)-1-(4-(2-methylpiperazin-1-yl)-4-oxobutyl)-3-(4-phenylthiazol-2-yl)urea] yielded an EC50 of 100 to 1000 nM. With `CC(C)(C)OC(=O)CCCN(CCC(c1ccccc1)c1ccccc1)C(=O)Nc1nc2ccccc2s1` [Example 101, tert-butyl 4-(3-(benzo[d]thiazol-2-yl)-1-(3,3-diphenylpropyl)ureido)butanoate] the figure was 100 to 1000 nM; with `NC(=O)CCCN(CCC(c1ccccc1)c1ccccc1)C(=O)Nc1nc2ccccc2s1` [Example 80, 1-(4-amino-4-oxobutyl)-3-(benzo[d]thiazol-2-yl)-1-(3,3-diphenylpropyl)urea], less than 100 nM. With `CN(C)C(=O)CCN(CCC(c1ccccc1)c1ccccc1)C(=O)Nc1nc2ccccc2s1` [Example 107, 3-(benzo[d]thiazol-2-yl)-1-(3-(dimethylamino)-3-oxopropyl)-1-(3,3-diphenylpropyl)urea] the figure was 100 to 1000 nM; with `CS(=O)(=O)Nc1ccc(-c2nc(NC(=O)N(CCOC(N)=O)CCC(c3ccccc3)c3ccccc3)sc2Cl)cc1` [Example 132, 2-(3-(5-chloro-4-(4-(methylsulfonamido)phenyl)thiazol-2-yl)-1-(3,3-diphenylpropyl)ureido)ethyl carbamate], less than 100 nM. With `C[C@@H]1CNCCN1C(=O)CCCN(CCC(c1ccccc1)c1ccccc1)C(=O)Nc1nc(-c2ccccc2)cs1` [Example 91, (R)-1-(3,3-diphenylpropyl)-1-(4-(2-methylpiperazin-1-yl)-4-oxobutyl)-3-(4-phenylthiazol-2-yl)urea] the figure was 100 to 1000 nM; with `O=C(CCN(CCC(c1ccccc1)c1ccccc1)C(=O)Nc1nc2ccccc2s1)NCc1ccccc1` [Example 117, 3-(benzo[d]thiazol-2-yl)-1-(3-(benzylamino)-3-oxopropyl)-1-(3,3-diphenylpropyl)urea], 100 to 1000 nM. As to `O=C(CCCN(CCC(c1ccccc1)c1ccccc1)C(=O)Nc1nc2ccccc2s1)N1CCNCC1` [Example 82, 3-(benzo[d]thiazol-2-yl)-1-(3,3-diphenylpropyl)-1-(4-oxo-4-(piperazin-1-yl)butyl)urea], the EC50 is less than 100 nM. To `CN(CCN(CCC(c1ccccc1)c1ccccc1)C(=O)Nc1nc(-c2ccccc2)cs1)C1CCCCC1` [Example 164, 1-[2-(Cyclohexyl-methyl-amino)-ethyl]-1-(3,3-diphenyl-propyl)-3-(4-phenyl-thiazol-2-yl)-urea] belongs 100 to 1000 nM; to `CC1OCCC1NCCN(CCC(c1ccccc1)c1ccccc1)C(=O)Nc1nc2ccccc2s1` (stereo not shown) [Example 157, 3-Benzothiazol-2-yl-1-(3,3-diphenyl-propyl)-1-[2-(2-methyl-tetrahydro-furan-3-ylamino)-ethyl]-urea], less than 100 nM. With `CC(=O)N1CCN(C(=O)CCCN(CCC(c2ccccc2)c2ccccc2)C(=O)Nc2nc(-c3ccccc3)cs2)CC1` [Example 84, 1-(4-(4-acetylpiperazin-1-yl)-4-oxobutyl)-1-(3,3-diphenylpropyl)-3-(4-phenylthiazol-2-yl)urea] the figure was less than 100 nM; with `CS(=O)(=O)NCCN(CCC(c1ccccc1)c1ccccc1)C(=O)Nc1nc2ccccc2s1` [Example 167, N-{2-[3-Benzothiazol-2-yl-1-(3,3-diphenyl-propyl)-ureido]-ethyl}-methanesulfonamide], 100 to 1000 nM; with `CN(C)C(=O)CCCN(CCC(c1ccccc1)c1ccccc1)C(=O)Nc1nc2ccccc2s1` [Example 89, 3-(benzo[d]thiazol-2-yl)-1-(4-(dimethylamino)-4-oxobutyl)-1-(3,3-diphenylpropyl)urea], less than 100 nM. To `CS(=O)(=O)Nc1ccc(-c2csc(NC(=O)N(CCC(=O)O)CCC(c3ccccc3)c3ccccc3)n2)cc1` [Example 113, 3-(1-(3,3-diphenylpropyl)-3-(4-(4-(methylsulfonamido)phenyl)thiazol-2-yl)ureido)propanoic acid] belongs 100 to 1000 nM.
